The text below walks through data of patent US8877707B2, “Inhibitors of HCV NS5A” (Presidio Pharmaceuticals, Inc., priority 2010, dated 2014).

Molecules are shown by their SMILES.

One test has as its system HCV genotype 1b replicon in Huh 7 cells. In words: HCV replicon assay (1b_Huh-Luc/Neo-ET cell line, luciferase readout). It counts as cell-based. Particulars: Hepatitis C virus; Table 1; genotype 1b replicon, Huh 7 cells, 72 h, luciferase; read-out: Inhibition of HCV genotype 1b. In a few lines:
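Huh 7 cells carrying a bicistronic genotype 1b luciferase replicon were treated with compound in triplicate the day after plating and incubated 72 h. Luciferase activity expressed as % of untreated control; EC50 from a four-parameter logistic fit, repeated several times.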
`CN(C)[C@@H](C(=O)N1CCC[C@H]1c1nc(-c2ccc3nc(C45CCC(c6cnc([C@@H]7CCCN7C(=O)[C@@H](c7ccccc7)N(C)C)[nH]6)(CC4)CC5)ccc3c2)c[nH]1)c1ccccc1` [compound 264]: the EC50 fell in the range of 1 to 9.9 nM.

Turning to `COC(=O)N[C@H](C(=O)N1CCC[C@H]1c1nc(-c2ccc3nc(C45CCC(c6cnc([C@@H]7CCCN7C(=O)[C@@H](NC(=O)OC)C7CC7)[nH]6)(CC4)CC5)ccc3c2)c[nH]1)C1CC1` [compound 265], the EC50 is below 1 nM.

Regarding `COC(=O)N[C@@H](C)C(=O)N1CCC[C@H]1c1nc(-c2ccc3nc(C45CCC(c6cnc([C@@H]7CCCN7C(=O)[C@H](C)NC(=O)OC)[nH]6)(CC4)CC5)ccc3c2)c[nH]1` [compound 266], the EC50 is below 1 nM.

Take `c1cc2nc(C34CCC(c5cnc([C@@H]6CCCN6)[nH]5)(CC3)CC4)ccc2cc1-c1c[nH]c([C@@H]2CCCN2)n1` [compound 267]: the EC50 was above 1000 nM.

In the case of `CC(C)(C)OC(=O)N1CCCC1c1ncc(C23CCC(c4ccc5cc(-c6c[nH]c([C@@H]7CCCN7C(=O)OC(C)(C)C)n6)ccc5n4)(CC2)CC3)[nH]1` (stereo partly drawn) [compound 268], the EC50 fell in the range of 10 to 999 nM.

Take `COC(=O)N[C@H](C(=O)N1CCC[C@H]1c1nc(-c2ccc3c(c2)CCN(c2c(F)cc(-c4cnc([C@@H]5CCCN5C(=O)[C@@H](NC(=O)OC)C(C)C)[nH]4)cc2F)C3)c[nH]1)C(C)C` [compound 269]: the EC50 was below 1 nM.

On to `COC(=O)N[C@@H](C(=O)N1CCC[C@H]1c1nc(-c2ccc3c(c2)CCN(c2c(F)cc(-c4cnc([C@@H]5CCCN5C(=O)[C@H](NC(=O)OC)c5ccccc5)[nH]4)cc2F)C3)c[nH]1)c1ccccc1` [compound 270], for which the EC50 was below 1 nM.

In the case of `COC(=O)N[C@H](C(=O)N1CCC[C@H]1c1nc(-c2ccc3c(c2)CCN(c2c(F)cc(-c4cnc([C@@H]5CCCN5C(=O)[C@@H](NC(=O)OC)C5CC5)[nH]4)cc2F)C3)c[nH]1)C1CC1` [compound 271], the EC50 is below 1 nM.

Turning to `COC(=O)N[C@@H](C)C(=O)N1CCC[C@H]1c1nc(-c2ccc3c(c2)CCN(c2c(F)cc(-c4cnc([C@@H]5CCCN5C(=O)[C@H](C)NC(=O)OC)[nH]4)cc2F)C3)c[nH]1` [compound 272], the EC50 is below 1 nM.

As to `COC(=O)N[C@@H](C)C(=O)N1CCC[C@H]1c1nc(-c2ccc3nc(N4CCC(c5cnc([C@@H]6CCCN6C(=O)[C@H](C)NC(=O)OC)[nH]5)CC4)ccc3c2)c[nH]1` [compound 273], the EC50 was in the range of 1 to 9.9 nM.

Consider `COC(=O)N[C@H](C(=O)N1CCC[C@H]1c1nc(-c2ccc3nc(N4CCC(c5cnc([C@@H]6CCCN6C(=O)[C@@H](NC(=O)OC)C6CC6)[nH]5)CC4)ccc3c2)c[nH]1)C1CC1` [compound 274], for which the EC50 was 1 to 9.9 nM.

Take `COC(=O)N[C@H](C(=O)N1CCC[C@H]1c1nc(-c2ccc3nc(N4CCC(c5cnc([C@@H]6CCCN6C(=O)[C@@H](NC(=O)OC)C(C)C)[nH]5)CC4)ccc3c2)c[nH]1)C(C)C` [compound 275]: the EC50 was below 1 nM.

Turning to `COC(=O)N[C@H](C(=O)N1CCC[C@H]1c1nc2ccc(-c3ccc4cc(-c5ccc6nc([C@@H]7CCCN7C(=O)[C@@H](NC(=O)OC)C(C)C)[nH]c6c5)ccc4c3)cc2[nH]1)C(C)C` [compound 276], the EC50 is below 1 nM.

`COC(=O)N[C@H](C(=O)N1CCC[C@H]1c1nc2ccc(-c3cccc4c(-c5ccc6nc([C@@H]7CCCN7C(=O)[C@@H](NC(=O)OC)C(C)C)[nH]c6c5)cccc34)cc2[nH]1)C(C)C` [compound 277]: the EC50 is below 1 nM.

For the compound `COC(=O)N[C@@H](C)C(=O)N1CCC[C@H]1c1nc2ccc(-c3ccc4cc(-c5ccc6nc([C@@H]7CCCN7C(=O)[C@H](C)NC(=O)OC)[nH]c6c5)ccc4c3)cc2[nH]1` [compound 278], the EC50 is below 1 nM.

In the case of `COC(=O)N[C@H](C(=O)N1CCC[C@H]1c1nc2ccc(-c3ccc4cc(-c5ccc6nc([C@@H]7CCCN7C(=O)[C@@H](NC(=O)OC)C7CCOCC7)[nH]c6c5)ccc4c3)cc2[nH]1)C1CCOCC1` [compound 279], the EC50 was below 1 nM.

As for `COC(=O)N[C@H](C(=O)N1CCC[C@H]1c1nc2ccc(-c3ccc4nc(-c5ccc6nc([C@@H]7CCCN7C(=O)[C@@H](NC(=O)OC)C(C)C)[nH]c6c5)ccc4c3)cc2[nH]1)C(C)C` [compound 280], the EC50 is below 1 nM.

Regarding `COC(=O)N[C@H](C(=O)N1CCC[C@H]1c1nc2ccc(-c3ccc4cc(-c5ccc6nc([C@@H]7CCCN7C(=O)[C@@H](NC(=O)OC)C(C)C)[nH]c6c5)ncc4c3)cc2[nH]1)C(C)C` [compound 281], the EC50 was below 1 nM.

In the case of `COC(=O)N[C@H](C(=O)N1CCC[C@H]1c1nc2ccc(-c3ccc4cc(-c5ccc6nc([C@@H]7CCCN7C(=O)[C@@H](NC(=O)OC)C7CCOCC7)[nH]c6c5)ccc4c3)cc2[nH]1)C(C)C` [compound 282], the EC50 is below 1 nM.

On to `COC(=O)N[C@H](C(=O)N1CCC[C@H]1c1nc2ccc(-c3ccc4cc(-c5ccc6nc([C@@H]7CCCN7C(=O)[C@H](NC(=O)OC)c7ccccc7)[nH]c6c5)ccc4c3)cc2[nH]1)C(C)C` [compound 283], for which the EC50 is below 1 nM.

Turning to `COC(=O)N[C@H](C(=O)N1CCC[C@H]1c1nc2ccc(-c3ccc4cc(-c5ccc6nc([C@@H]7CCCN7C(=O)[C@@H](NC(=O)OC)C7CCOCC7)[nH]c6n5)ccc4c3)nc2[nH]1)C1CCOCC1` [compound 284], the EC50 is 1 to 9.9 nM.

As for `COC(=O)N[C@@H](C(=O)N1CCC[C@H]1c1nc(-c2ccc3nc(C4CCC(c5cnc([C@@H]6CCCN6C(=O)[C@H](NC(=O)OC)c6ccccc6)[nH]5)CC4)ccc3c2)c[nH]1)c1ccccc1` (stereo partly drawn) [compound 286], the EC50 was below 1 nM.

As for `COC(=O)N[C@H](C(=O)N1CCC[C@H]1c1nc(-c2ccc3c(=O)n(-c4ccc(-c5cnc([C@@H]6CCCN6C(=O)[C@@H](NC(=O)OC)C(C)C)[nH]5)cc4)ccc3c2)c[nH]1)C(C)C` [compound 287], the EC50 was below 1 nM.

Take `COC(=O)N[C@@H](C(=O)N1CCC[C@H]1c1nc(-c2ccc3c(=O)n(-c4ccc(-c5cnc([C@@H]6CCCN6C(=O)[C@H](NC(=O)OC)c6ccccc6)[nH]5)cc4)ccc3c2)c[nH]1)c1ccccc1` [compound 288]: the EC50 is below 1 nM.

Turning to `COC(=O)N[C@@H](C(=O)N1CCC[C@H]1c1nc(-c2ccc3c(c2)CCN(c2ccc(-c4cnc([C@@H]5CCCN5C(=O)[C@H](NC(=O)OC)c5ccccc5)[nH]4)cc2)C3=O)c[nH]1)c1ccccc1` [compound 289], the EC50 is below 1 nM.

With `COC(=O)N[C@H](C(=O)N1CCC[C@H]1c1ncc(-c2ccc(N3Cc4cc(-c5cnc([C@@H]6CCCN6C(=O)[C@@H](NC(=O)OC)C(C)C)[nH]5)ccc4C3=O)cc2)[nH]1)C(C)C` [compound 290], the EC50 was below 1 nM.

Turning to `COC(=O)N[C@H](C(=O)N1CCC[C@H]1c1nc(C2CNc3cc(-c4ccc(-c5cnc([C@@H]6CCCN6C(=O)[C@H](NC(=O)OC6CCOCC6)c6ccccc6)[nH]5)cc4)ccc3C2)c[nH]1)C(C)C` (stereo partly drawn) [compound 291], the EC50 was below 1 nM.

For the compound `COC(=O)N[C@H](C(=O)N1CCC[C@H]1c1ncc(-c2ccc3nc(-c4ccc5c(ccc6nc([C@@H]7CCCN7C(=O)[C@@H](NC(=O)OC)C(C)C)[nH]c65)c4)ccc3c2)[nH]1)C(C)C` [compound 296], the EC50 was below 1 nM.

Consider `COC(=O)N[C@H](C(=O)N1CCC[C@H]1c1nc2ccc3cc(-c4ccc5cc(-c6cnc([C@@H]7CCCN7C(=O)[C@@H](NC(=O)OC)C7CCOCC7)[nH]6)ccc5n4)ccc3c2[nH]1)C(C)C` [compound 297], for which the EC50 is below 1 nM.

With `COC(=O)N[C@H](C(=O)N1CCC[C@H]1c1nc2ccc3cc(-c4ccc5cc(-c6cnc([C@@H]7CCCN7C(=O)[C@H](NC(=O)OC)c7ccccc7)[nH]6)ccc5n4)ccc3c2[nH]1)C(C)C` [compound 298], the EC50 was below 1 nM.

On to `COC(=O)N[C@H](C(=O)N1CCC[C@H]1c1nc2ccc3cc(-c4ccc5cc(-c6cnc([C@@H]7CCCN7C(=O)[C@H](NC(=O)OC7CCOCC7)c7ccccc7)[nH]6)ccc5n4)ccc3c2[nH]1)C(C)C` [compound 299], for which the EC50 was below 1 nM.

The same test, now with this note: Hepatitis C virus; Table 2; genotype 1b replicon, Huh 7 cells, 72 h, luciferase; read-out: Inhibition of HCV genotype 1b.
Regarding `COC(=O)N[C@H](C(=O)N[C@@H](C)c1ncc(-c2ccc3cc(-c4ccc(-c5cnc([C@@H]6CCCN6C(=O)[C@@H](NC(=O)OC)C(C)C)[nH]5)cc4)ccc3c2)[nH]1)C(C)C` [compound 304], the EC50 is below 1 nM.

On to `COC(=O)N[C@H](C(=O)N1CCC[C@H]1c1ncc(-c2ccc(-c3ccc4cc(-c5cnc([C@@H]6C[C@@H](O)CN6C(=O)[C@@H](NC(=O)OC)C(C)C)[nH]5)ccc4c3)cc2)[nH]1)C(C)C` [compound 305], for which the EC50 is below 1 nM.

`COC(=O)N[C@H](C(=O)N1CC[C@H](O)[C@H]1c1ncc(-c2ccc3cc(-c4ccc(-c5cnc([C@@H]6CCCN6C(=O)[C@@H](NC(=O)OC)C(C)C)[nH]5)cc4)ccc3c2)[nH]1)C(C)C` [compound 306]: the EC50 is below 1 nM.

As for `COC(=O)N[C@H](C(=O)N1CCCC[C@H]1c1ncc(-c2ccc3cc(-c4ccc(-c5cnc([C@@H]6CCCN6C(=O)[C@@H](NC(=O)OC)C(C)C)[nH]5)cc4)ccc3c2)[nH]1)C(C)C` [compound 307], the EC50 is below 1 nM.

`COC(=O)N[C@H](C(=O)N1CCC[C@H]1c1ncc(-c2ccc(-c3ccc4cc(-c5cnc([C@@H]6CSCCN6C(=O)[C@@H](NC(=O)OC)C(C)C)[nH]5)ccc4c3)cc2)[nH]1)C(C)C` [compound 308]: the EC50 was below 1 nM.

With `COC(=O)N[C@H](C(=O)N1CCC[C@H]1c1ncc(-c2ccc(-c3ccc4cc(-c5cnc([C@@H]6CCCN6C(=O)[C@@H](NC(=O)OC)C(C)C)[nH]5)ccc4c3)c(C#N)c2)[nH]1)C(C)C` [compound 309], the EC50 was below 1 nM.

Take `COC(=O)N[C@H](C(=O)N1CCC[C@H]1c1ncc(-c2ccc(-c3ccc4cc(-c5cnc([C@@H]6CCCN6C(=O)[C@@H](NC(=O)OC)C(C)C)[nH]5)ccc4c3)c(C(F)(F)F)c2)[nH]1)C(C)C` [compound 310]: the EC50 was below 1 nM.

Regarding `COC(=O)N[C@H](C(=O)N1CCC[C@H]1c1ncc(-c2ccc3cc(-c4ccc(-c5cnc([C@@H]6CCCN6C(=O)[C@@H](NC(=O)OC)C(C)C)[nH]5)nn4)ccc3c2)[nH]1)C(C)C` [compound 312], the EC50 is below 1 nM.
